Measurements from patent US6355799B1, “Substituted benzene compounds, process for their preparation, and herbicidal and defoliant compositions containing them” (ISK Americas Incorporated, priority 1997, dated 2002).

Assays:
Format in all cases: in vivo
[1] = tested on: redroot pigweed (Amaranthus retroflexus, AMARE); test: Pre-emerge test, greenhouse herbicide activity screening; settings: for Pre-emerge Herbicidal Activity AMARE: phytotoxicity rating 0-100, 14 days after application; for phytotoxicity rating AMARE: pre-emerge, 14 days after application, scale 0-100
In short: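 Herbicidal damage is scored 0 (none) to 100 (complete plant death) two weeks after a simulated field spray. Rates span 15–1000 g ai/ha, delivered in acetone at 187 l/ha. For post-emergence treatments, plants have 2–3 leaves and the spray carries 0.25% v/v non-ionic surfactant.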

[2] = tested on: upland rice (Oryza sp., var. Tebonnet, RICE); test: Pre-emerge test, crop safety; settings: for Pre-emerge Herbicidal Activity RICE: crop damage rating 0-100, 14 days after application; for phytotoxicity rating RICE (crop damage): pre-emerge, 14 days after application, scale 0-100
In short: (§1)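 Applied at 15–1000 g ai/ha from acetone in 187 l/ha spray volume. Post-emergence applications included 0.25% v/v non-ionic surfactant and reached plants sown 8–21 days before. Pre-emergence applications were incorporated by surface watering. Efficacy or crop damage was rated on a 0–100 scale after 14 days.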

[3] = tested on: field corn (Zea mays L., var. Dekalb 535, CORN); test: Pre-emerge test, crop safety; settings: for Pre-emerge Herbicidal Activity CORN: crop damage rating 0-100, 14 days after application; for phytotoxicity rating CORN (crop damage): pre-emerge, 14 days after application, scale 0-100
In short: as §1

[4] = tested on: upland rice (Oryza sp., var. Tebonnet, RICE); test: Post-emerge test, crop safety; settings: post-emerge, 14 days after application, rating scale 0-100
In short: (§2)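 Compounds in acetone were track-sprayed at 187 l/ha, 15–1000 g ai/ha, onto sandy loam pots. Pre-emerge seeds were sown one day before spraying, with surface watering afterwards. Post-emerge plants were at the 2–3 leaf stage and sprayed with 0.25% v/v non-ionic surfactant. Injury was rated 0–100 at 14 days.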

[5] = tested on: field corn (Zea mays L., var. Dekalb 535, CORN); test: Post-emerge test, crop safety; settings: post-emerge, 14 days after application, rating scale 0-100
In short: as §2

[6] = tested on: redroot pigweed (Amaranthus retroflexus, AMARE); test: Post-emerge test, greenhouse herbicide activity screening; settings: post-emerge, 14 days after application
In short: as §1

[7] = tested on: velvetleaf (Abutilon theophrasti, ABUTH); test: as above; settings: post-emerge, 14 days after application, rating scale 0-100
In short: as §1

[8] = tested on: lambsquarters (Chenopodium album, CHEAL); test: as above; settings: post-emerge, 14 days after application, rating scale 0-100
In short: as §1

[9] = tested on: ivyleaf morningglory (Ipomoea hederacea, IPOHE); test: as above; settings: post-emerge, 14 days after application, rating scale 0-100
In short: as §1

[10] = tested on: sicklepod (Cassia obtusifolia, CASOB); test: as above; settings: post-emerge, 14 days after application, rating scale 0-100
In short: as §1

[11] = tested on: large crabgrass (Digitaria sanguinalis, DIGSA); test: as above; settings: post-emerge, 14 days after application, rating scale 0-100
In short: as §1

[12] = tested on: green foxtail (Setaria viridis, SETVI); test: as above; settings: post-emerge, 14 days after application, rating scale 0-100
In short: as §1

[13] = tested on: barnyardgrass (Echinochloa crus-galli, ECHCG); test: as above; settings: post-emerge, 14 days after application, rating scale 0-100
In short: as §1

[14] = tested on: velvetleaf (Abutilon theophrasti, ABUTH); test: Pre-emerge test, greenhouse herbicide activity screening; settings: for Pre-emerge Herbicidal Activity ABUTH: phytotoxicity rating 0-100, 14 days after application; for phytotoxicity rating ABUTH: pre-emerge, 14 days after application, scale 0-100
In short: as §2

[15] = tested on: lambsquarters (Chenopodium album, CHEAL); test: as above; settings: for Pre-emerge Herbicidal Activity CHEAL: phytotoxicity rating 0-100, 14 days after application; for phytotoxicity rating CHEAL: pre-emerge, 14 days after application, scale 0-100
In short: as §2

[16] = tested on: ivyleaf morningglory (Ipomoea hederacea, IPOHE); test: as above; settings: for Pre-emerge Herbicidal Activity IPOHE: phytotoxicity rating 0-100, 14 days after application; for phytotoxicity rating IPOHE: pre-emerge, 14 days after application, scale 0-100
In short: as §2

[17] = tested on: johnsongrass (Sorghum halepense, SORHA); test: as above; settings: for Pre-emerge Herbicidal Activity SORHA: phytotoxicity rating 0-100, 14 days after application; for phytotoxicity rating SORHA: pre-emerge, 14 days after application, scale 0-100
In short: as §2

[18] = tested on: sicklepod (Cassia obtusifolia, CASOB); test: as above; settings: for Pre-emerge Herbicidal Activity CASOB: phytotoxicity rating 0-100, 14 days after application; for phytotoxicity rating CASOB: pre-emerge, 14 days after application, scale 0-100
In short: as §2

[19] = tested on: large crabgrass (Digitaria sanguinalis, DIGSA); test: as above; settings: for Pre-emerge Herbicidal Activity DIGSA: phytotoxicity rating 0-100, 14 days after application; for phytotoxicity rating DIGSA: pre-emerge, 14 days after application, scale 0-100
In short: as §2

[20] = tested on: green foxtail (Setaria viridis, SETVI); test: as above; settings: for Pre-emerge Herbicidal Activity SETVI: phytotoxicity rating 0-100, 14 days after application; for phytotoxicity rating SETVI: pre-emerge, 14 days after application, scale 0-100
In short: as §2

[21] = tested on: barnyardgrass (Echinochloa crus-galli, ECHCG); test: as above; settings: for Pre-emerge Herbicidal Activity ECHCG: phytotoxicity rating 0-100, 14 days after application; for phytotoxicity rating ECHCG: pre-emerge, 14 days after application, scale 0-100
In short: as §2

[22] = 250 g ai/ha, rating scale 0-100

COc1c(Cl)cc(F)c(-n2c(=O)cc(C(F)(F)F)n(C)c2=O)c1NC(=O)OCc1c(F)c(F)c(F)c(F)c1F [4-48] was tested, and the “Pre-emerge Herbicidal Activity AMARE” value ([1]; 63 g ai/ha) was 100, the “Pre-emerge Herbicidal Activity AMARE” value ([1]; 250 g ai/ha) was 100 and the “Pre-emerge Herbicidal Activity RICE” value ([2]; 63 g ai/ha) was 20. The “Pre-emerge Herbicidal Activity RICE” value ([2]; 250 g ai/ha) was 70, the “Pre-emerge Herbicidal Activity CORN” value ([3]; 63 g ai/ha) was 30 and the “Pre-emerge Herbicidal Activity CORN” value ([3]; 250 g ai/ha) was 50. For the same compound, the “phytotoxicity rating RICE (crop damage)” value ([4]; 63 g ai/ha) was 80, the “phytotoxicity rating RICE (crop damage)” value ([4]; 250 g ai/ha) was 80 and the “phytotoxicity rating CORN (crop damage)” value ([5]; 63 g ai/ha) was 90. For the same compound, the “phytotoxicity rating CORN (crop damage)” value ([5]; 250 g ai/ha) was 90, the “phytotoxicity rating AMARE” value ([6]; 63 g ai/ha, rating scale 0-100 (0 no damage, 100 complete death)) was 100 and the “phytotoxicity rating AMARE” value [6, 22] was 100. The “phytotoxicity rating ABUTH” value ([7]; 63 g ai/ha) was 100, the “phytotoxicity rating ABUTH” value ([7]; 250 g ai/ha) was 100 and the “phytotoxicity rating CHEAL” value ([8]; 63 g ai/ha) was 100. The “phytotoxicity rating CHEAL” value ([8]; 250 g ai/ha) was 100, the “phytotoxicity rating IPOHE” value ([9]; 63 g ai/ha) was 100 and the “phytotoxicity rating IPOHE” value ([9]; 250 g ai/ha) was 100. The “phytotoxicity rating CASOB” value ([10]; 63 g ai/ha) was 95, the “phytotoxicity rating CASOB” value ([10]; 250 g ai/ha) was 100 and the “phytotoxicity rating DIGSA” value ([11]; 63 g ai/ha) was 20. For the same compound, the “phytotoxicity rating DIGSA” value ([11]; 250 g ai/ha) was 40, the “phytotoxicity rating SETVI” value ([12]; 63 g ai/ha) was 30 and the “phytotoxicity rating SETVI” value ([12]; 250 g ai/ha) was 40. The “phytotoxicity rating ECHCG” value ([13]; 63 g ai/ha) was 20, the “phytotoxicity rating ECHCG” value ([13]; 250 g ai/ha) was 80 and the “Pre-emerge Herbicidal Activity ABUTH” value ([14]; 63 g ai/ha) was 100. The “Pre-emerge Herbicidal Activity ABUTH” value ([14]; 250 g ai/ha) was 100, the “Pre-emerge Herbicidal Activity CHEAL” value ([15]; 63 g ai/ha) was 100 and the “Pre-emerge Herbicidal Activity CHEAL” value ([15]; 250 g ai/ha) was 100. The “Pre-emerge Herbicidal Activity IPOHE” value ([16]; 63 g ai/ha) was 80, the “Pre-emerge Herbicidal Activity IPOHE” value ([16]; 250 g ai/ha) was 100 and the “Pre-emerge Herbicidal Activity SORHA” value ([17]; 63 g ai/ha) was 60. The “Pre-emerge Herbicidal Activity SORHA” value ([17]; 250 g ai/ha) was 90, the “Pre-emerge Herbicidal Activity CASOB” value ([18]; 63 g ai/ha) was 40 and the “Pre-emerge Herbicidal Activity CASOB” value ([18]; 250 g ai/ha) was 100. For the same compound, the “Pre-emerge Herbicidal Activity DIGSA” value ([19]; 63 g ai/ha) was 100, the “Pre-emerge Herbicidal Activity DIGSA” value ([19]; 250 g ai/ha) was 100 and the “Pre-emerge Herbicidal Activity SETVI” value ([20]; 63 g ai/ha) was 100. For the same compound, the “Pre-emerge Herbicidal Activity SETVI” value ([20]; 250 g ai/ha) was 100, the “Pre-emerge Herbicidal Activity ECHCG” value ([21]; 63 g ai/ha) was 50 and the “Pre-emerge Herbicidal Activity ECHCG” value ([21]; 250 g ai/ha) was 70.
In the case of Cn1c(C(F)(F)F)cc(=O)n(-c2ccc(Cl)cc2NC(=O)C=Cc2ccccc2)c1=O [2-137], the “phytotoxicity rating AMARE” value ([1]; 63 g ai/ha) is reported as 100, the “phytotoxicity rating AMARE” value ([1]; 250 g ai/ha) is reported as 100 and the “phytotoxicity rating RICE (crop damage)” value ([2]; 63 g ai/ha) is reported as 20. The “phytotoxicity rating RICE (crop damage)” value ([2]; 250 g ai/ha) was 50, the “phytotoxicity rating CORN (crop damage)” value ([3]; 63 g ai/ha) was 0 and the “phytotoxicity rating CORN (crop damage)” value ([3]; 250 g ai/ha) was 10. The “RICE phytotoxicity rating (crop damage)” value ([4]; 63 g ai/ha) was 10, the “RICE phytotoxicity rating (crop damage)” value ([4]; 250 g ai/ha) was 70 and the “CORN phytotoxicity rating (crop damage)” value ([5]; 63 g ai/ha) was 10. The “CORN phytotoxicity rating (crop damage)” value ([5]; 250 g ai/ha) was 60, the AMARE phytotoxicity rating ([6]; 63 g ai/ha, rating scale 0-100) was 100 and the AMARE phytotoxicity rating [6, 22] was 100. The ABUTH phytotoxicity rating ([7]; 63 g ai/ha) was 100, the ABUTH phytotoxicity rating ([7]; 250 g ai/ha) was 100 and the CHEAL phytotoxicity rating ([8]; 63 g ai/ha) was 100. The CHEAL phytotoxicity rating ([8]; 250 g ai/ha) was 100, the IPOHE phytotoxicity rating ([9]; 63 g ai/ha) was 100 and the IPOHE phytotoxicity rating ([9]; 250 g ai/ha) was 90. The CASOB phytotoxicity rating ([10]; 63 g ai/ha) was 100, the CASOB phytotoxicity rating ([10]; 250 g ai/ha) was 90 and the DIGSA phytotoxicity rating ([11]; 63 g ai/ha) was 0. It also gave a DIGSA phytotoxicity rating ([11]; 250 g ai/ha) of 10, an SETVI phytotoxicity rating ([12]; 63 g ai/ha) of 10 and an SETVI phytotoxicity rating ([12]; 250 g ai/ha) of 30. The ECHCG phytotoxicity rating ([13]; 63 g ai/ha) was 0, the ECHCG phytotoxicity rating ([13]; 250 g ai/ha) was 30 and the “phytotoxicity rating ABUTH” value ([14]; 63 g ai/ha) was 80. For the same compound, the “phytotoxicity rating ABUTH” value ([14]; 250 g ai/ha) was 100, the “phytotoxicity rating CHEAL” value ([15]; 63 g ai/ha) was 100 and the “phytotoxicity rating CHEAL” value ([15]; 250 g ai/ha) was 100. For the same compound, the “phytotoxicity rating IPOHE” value ([16]; 63 g ai/ha) was 30, the “phytotoxicity rating IPOHE” value ([16]; 250 g ai/ha) was 30 and the “phytotoxicity rating SORHA” value ([17]; 63 g ai/ha) was 0. The “phytotoxicity rating SORHA” value ([17]; 250 g ai/ha) was 70, the “phytotoxicity rating CASOB” value ([18]; 63 g ai/ha) was 50 and the “phytotoxicity rating CASOB” value ([18]; 250 g ai/ha) was 50. The “phytotoxicity rating DIGSA” value ([19]; 63 g ai/ha) was 50, the “phytotoxicity rating DIGSA” value ([19]; 250 g ai/ha) was 100 and the “phytotoxicity rating SETVI” value ([20]; 63 g ai/ha) was 30. The “phytotoxicity rating SETVI” value ([20]; 250 g ai/ha) was 60, the “phytotoxicity rating ECHCG” value ([21]; 63 g ai/ha) was 10 and the “phytotoxicity rating ECHCG” value ([21]; 250 g ai/ha) was 50.
